Tests used:
[1] = system: rat whole blood; experiment: Factor II activity, PT, APPT and TT in rat whole blood; type: biochemical; conditions: dose-dependent manner
[2] = target: thrombin (Homo sapiens, UniProt P00734); experiment: Thrombin inhibition IC50 (Table 3); type: biochemical; conditions: Table 3, AYA1809002
[3] = Onset, consistency and reversal of anticoagulant effect (Table 3); type: in vivo; conditions: Table 3, AYA1809002
[4] = Storage stability (Table 3); type: physicochemical; conditions: after 24 months at room temperature
[5] = system: human citrated plasma; experiment: Activated partial thromboplastin time (APTT) assay in human citrated plasma; type: biochemical; conditions: 2 uM, 2 h, versus untreated control
Protocol: 137. Sterile human blood in sodium citrate was purchased from the Rockland Immuno- chemicals, Inc (cat #R214-0050, Pottstown, PA 19464, USA). Plasma was prepared by centrifugation for 10 min at 2000×g. In vitro activity assays were performed on ACLTOP analyzer manufactured by Instrumentation Laboratory, which is a type of coagulation analyzer commonly used in clinical laboratories to measure clotting times and assess coagulation parameters. The ACLTOP analyzer is designed to perform a wide range of coagulation tests, including Factor II activity, prothrombin time (PT), activated partial thromboplastin time (APTT), fibrinogen, and other related assays. ACLTOP analyzer uses HemosIL reagents developed by Instrumentation Laboratory company (Bedford, MA, USA) to perform coagulation tests.
140. […] APTT time was measured using the synthetic phospholipid reagent SynthASIil for quantitative determination in human citrated plasma on an ACLTOP coagulation analyzer manufactured by Instrumentation Laboratory (Bed- ford, MA, USA).
146. Modified aptamers chemically crosslinked with TAG, PEG, and cholesterol entities at the 3′ end, were purchased from IDT (Integrated DNA Technologies, Coralville, IA, USA). The impact of modified AYA1809002 and AYA1809004 aptamers on Factor II activity, PT, and APTT was evaluated using the same protocol as was used for the unmodified aptamers. Additionally, the potential for reversal was investigated using the respective reverse complement for each aptamer.

[6] = Major bleeding rate in animal studies (Table 3); type: in vivo
[7] = target: thrombin over other serine proteases (Homo sapiens, UniProt P00734); experiment: Selectivity for thrombin over other serine proteases (Table 3); type: biochemical; conditions: Table 3, AYA1809002
[8] = Pharmacokinetics and renal clearance (Table 3); type: in vivo; conditions: Table 3, AYA1809002
[9] = target: T1, human alpha-thrombin protein (Homo sapiens, UniProt P00734); experiment: ELISA-based binding assay of biotinylated thrombin aptamers to thrombin protein; conditions: for Kd: ELISA-based competition assay, 5′ biotin aptamer with or without 100-fold excess non-biotinylated aptamer, estimated, read-out: binding affinity to thrombin, dissociation constant (Kd); for binding to immobilized human thrombin (absorbance at 450 nm): top nine enriched aptamers, biotinylated, FIG. 2A
T1 construct: Native human alpha-thrombin protein; purchased ThermoFisher Scientific RP-43100; host or cells: native protein
Protocol: 135. Native human alpha-thrombin protein (ThermoFisher Scientific, cat #RP-43100, Waltham, MA, USA) was added to each well of a 96-well plate (Nunc MaxiSorp flat-bottom 96-well plates, ThermoFisher Scientific, cat #44-2404-21, Waltham, MA, USA) at a concentration of 250 nM in Tris-buffered saline with a volume of 100 μL per well. The plate was then incubated at 4° C. for 16 h to allow the wells to become coated with thrombin. After removing the thrombin solution, the wells were washed and blocked using blocking buffer (20 mM Tris, 150 mM NaCl pH 7.5, 2% BSA, 0.1% Tween 20 and 100 μg/mL of sheared salmon sperm DNA) for a 1 h duration. Next, biotinylated aptamers at the indicated concentrations in a volume of 100 μL were added to the wells in an incubation buffer (20 mM Tris, 150 mM NaCl pH 7.5, 0.1% BSA, 0.1% Tween 20 and 100 μg/mL of sheared salmon sperm DNA) and incubated for 1 h at room temperature. In the competition binding assay, unlabeled aptamers were added along with the biotinylated aptamers, with the unlabeled aptamers being present in a 100-fold excess compared to the biotinylated aptamers. Following three washing steps with wash buffer (20 mM Tris, 150 mM NaCl pH 7.5, 0.1% BSA and 0.1% Tween 20), streptavidin-HRP (ThermoFisher Scientific, cat #21130, Waltham, MA, USA) was added at a dilution of 1:5000 in the incubation buffer. The plate was washed again three times to remove any unbound reagents. The bound biotinylated aptamers were then detected using 3,3′,5,5′-Tetramethylbenzidine (TMB) substrate (ThermoFisher Scientific, cat #34021, Waltham, MA, USA) following the manufacturer's instructions.

Row | Substance | APPT in rat whole blood [1] | Factor II activity in rat whole blood [1] | PT in rat whole blood [1] | TT in rat whole blood [1] | IC50 [2] [nM] | Anticoagulant Effect Consistency: inter-individual variability in aPTT prolongation [3] [% inter-individual] | Onset of Action: peak effect [3] | activity maintained on storage [4] | increase in APTT time [5] | major bleeding rate [6] | selectivity for thrombin over other serine proteases [7] | Renal Clearance [8] [%] | Kd [9] [nM] | binding to immobilized human thrombin (absorbance at 450 nm) [9]
1 | AYA1809002: ssDNA thrombin aptamer GCGGTGTTGCTGGGGTTGGGAGGTTGGAGGAAGCAATCGC | extend | inhibit | extend | extend | ≤ 0.5 | <15 | Peak effect withing 1 hour | Maintain >95% | approximate four-fold increase | (≤2% major bleeding | >100-fold selectivity | <50 | 10 | strong binding capabilities
2 | AYA1809004: ssDNA thrombin aptamer TCGTCAAGGTACGGTTGGGGGGGTGGGTGTTGACGTTGAA (DNA, backbone not given here) |  |  |  |  |  |  |  |  | approximate four-fold increase |  |  |  | 13 | strong binding capabilities

Reference: US20250304973A1, “HIGH-AFFINITY THROMBIN APTAMERS AND METHODS OF USE” (Ayass Bioscience LLC, priority 2024, published 2025)
